# Like-named read-outs stand apart in the source and are kept apart here.
# Key:
# MEF TrxR1-ko cells = test: Resazurin cytotoxicity assay, MEF TrxR1 knockout, 72 h; conditions: MEF TrxR1-ko vs wt (fl/fl)
# Source text: A TrxR1 knockout (ko) in mouse embryonic fibroblast (MEF) cells is, however, accessible. We compared its prodrug sensitivity to that of its parental line[49] (wild-type, wt), on the basis that TrxR1-ko should leave most Trx1 in its oxidized state (only a fraction of it can be maintained in the reduced state by alternative reductants such as Grx2),[50] so prodrugs relying on the cytosolic thioredoxin system (Trx1/TrxR1) for most of their bioreductive activation in long-term assays will have lower potency in TrxR1-ko cells.
# MEF cells (ko vs. wt) we r e treated with prodrugs of the CBI-TMI and CBI-AZI series for
# 72 h at concentrations from 10 pm t o 3 0 µM at 27 incremental single concentrations depending on expected
# potencies of the constructs. Data from at least 3 individual experiments was combined (no error bars shown for
# clarity) for each cell line.
# [1] = system: NCI-60 standardized human tumor cell line panel; test: cells; format: cell-based; conditions: for NCI-60 screening: Log(GI50): log10 of GI50 in M; for NCI-60 screening: Log(RedIndex): log10 reductive index vs P-CC60
structure (smiles),measurement,setting,value
COc1cc2cc(C(=O)N3CC(CCl)c4c3cc(OC(=O)N3CCN(C)C5CSSCC53)c3ccccc43)[nH]c2c(OC)c1OC (mixture of isomers) [Me-SS66T-CBI-TMI],fold change of potency wt → ko,MEF TrxR1-ko cells,2 ×
same,NCI-60 screening: Log(GI50),[1]; 786-0 (RE) cell line,-7.79
same,NCI-60 screening: Log(RedIndex),[1]; 786-0 (RE) cell line,2.03
same,GI50,"[1]; 786-0 (RE) cell line, read-out: NCI-60 screening: Raw GI50",16 nM
same,GI50,"[1]; 786-0, read-out: GI50",16 nM
same,NCI-60 screening: Log(GI50),[1]; A498 (RE) cell line,-6.9
same,NCI-60 screening: Log(RedIndex),[1]; A498 (RE) cell line,1.34
same,GI50,"[1]; A498 (RE) cell line, read-out: NCI-60 screening: Raw GI50",130 nM
same,GI50,"[1]; A498, read-out: GI50",130 nM
same,GI50,"[1]; A549/ATCC, read-out: GI50",12 nM
same,NCI-60 screening: Log(GI50),[1]; ACHN (RE) cell line,-8.02
same,NCI-60 screening: Log(RedIndex),[1]; ACHN (RE) cell line,1.71
same,GI50,"[1]; ACHN (RE) cell line, read-out: NCI-60 screening: Raw GI50",9.5 nM
same,GI50,"[1]; ACHN, read-out: GI50",9.5 nM
same,GI50,"[1]; BT-549, read-out: GI50",15 nM
same,NCI-60 screening: Log(GI50),[1]; CAKI-1 (RE) cell line,-7.56
same,NCI-60 screening: Log(RedIndex),[1]; CAKI-1 (RE) cell line,1.74
same,GI50,"[1]; CAKI-1 (RE) cell line, read-out: NCI-60 screening: Raw GI50",27 nM
same,GI50,"[1]; CAKI-1, read-out: GI50",27 nM
same,GI50,"[1]; CCRF-CEM, read-out: GI50",26 nM
same,GI50,"[1]; COLO 205, read-out: GI50",49 nM
same,NCI-60 screening: Log(GI50),[1]; DU-145 (PR) cell line,-8.46
same,NCI-60 screening: Log(RedIndex),[1]; DU-145 (PR) cell line,2.12
same,GI50,"[1]; DU-145, read-out: GI50",3.5 nM
same,GI50,"[1]; EKVX, read-out: GI50",18 nM
same,GI50,"[1]; HCC-2998, read-out: GI50",15 nM
same,GI50,"[1]; HCT-15, read-out: GI50",22 nM
same,GI50,"[1]; HCT-116, read-out: GI50",18 nM
same,GI50,"[1]; HL-60(TB), read-out: GI50",12 nM
same,GI50,"[1]; HOP-62, read-out: GI50",12 nM
same,GI50,"[1]; HOP-92, read-out: GI50",27 nM
same,GI50,"[1]; HT29, read-out: GI50",34 nM
same,NCI-60 screening: Log(GI50),[1]; IGROV1 (OV) cell line,-7.23
same,NCI-60 screening: Log(RedIndex),[1]; IGROV1 (OV) cell line,1.6
same,GI50,"[1]; IGROV1 (OV) cell line, read-out: NCI-60 screening: Raw GI50",58 nM
same,GI50,"[1]; IGROV1, read-out: GI50",58 nM
same,GI50,"[1]; K-562, read-out: GI50",25 nM
same,GI50,"[1]; KM12, read-out: GI50",44 nM
same,GI50,"[1]; LOX IMVI, read-out: GI50",12 nM
same,GI50,"[1]; M14, read-out: GI50",10 nM
same,GI50,"[1]; MALME-3M, read-out: GI50",14 nM
same,GI50,"[1]; MCF7, read-out: GI50",5.2 nM
same,GI50,"[1]; MDA-MB-435, read-out: GI50",27 nM
same,GI50,"[1]; MDA-MB-468, read-out: GI50",12 nM
same,GI50,"[1]; MOLT-4, read-out: GI50",9.9 nM
same,GI50,"[1]; NCI-H23, read-out: GI50",9.5 nM
same,GI50,"[1]; NCI-H226, read-out: GI50",95 nM
same,NCI-60 screening: Log(GI50),[1]; NCI-H460 (LC) cell line,-8.32
same,NCI-60 screening: Log(RedIndex),[1]; NCI-H460 (LC) cell line,2.03
same,GI50,"[1]; NCI-H460, read-out: GI50",4.8 nM
same,NCI-60 screening: Log(GI50),[1]; NCI-H522 (LC) cell line,-7.91
same,NCI-60 screening: Log(RedIndex),[1]; NCI-H522 (LC) cell line,2.14
same,GI50,"[1]; NCI-H522 (LC) cell line, read-out: NCI-60 screening: Raw GI50",12 nM
same,GI50,"[1]; NCI-H522, read-out: GI50",12 nM
same,NCI-60 screening: Log(GI50),[1]; OVCAR-3 (OV) cell line,-7.28
same,NCI-60 screening: Log(RedIndex),[1]; OVCAR-3 (OV) cell line,1.6
same,GI50,"[1]; OVCAR-3, read-out: GI50",53 nM
same,NCI-60 screening: Log(GI50),[1]; OVCAR-4 (OV) cell line,-6.8
same,NCI-60 screening: Log(RedIndex),[1]; OVCAR-4 (OV) cell line,1.17
same,GI50,"[1]; OVCAR-4 (OV) cell line, read-out: NCI-60 screening: Raw GI50",160 nM
same,GI50,"[1]; OVCAR-4, read-out: GI50",160 nM
same,NCI-60 screening: Log(GI50),[1]; OVCAR-5 (OV) cell line,-7.44
same,NCI-60 screening: Log(RedIndex),[1]; OVCAR-5 (OV) cell line,2.15
same,GI50,"[1]; OVCAR-5, read-out: GI50",36 nM
same,NCI-60 screening: Log(GI50),[1]; OVCAR-8 (OV) cell line,-8.06
same,NCI-60 screening: Log(RedIndex),[1]; OVCAR-8 (OV) cell line,2.28
same,GI50,"[1]; OVCAR-8, read-out: GI50",8.6 nM
same,NCI-60 screening: Log(GI50),[1]; PC-3 (PR) cell line,-7.61
same,NCI-60 screening: Log(RedIndex),[1]; PC-3 (PR) cell line,2.11
same,GI50,"[1]; PC-3 (PR) cell line, read-out: NCI-60 screening: Raw GI50",25 nM
same,GI50,"[1]; PC-3, read-out: GI50",25 nM
same,GI50,"[1]; RPMI-8226, read-out: GI50",34 nM
same,NCI-60 screening: Log(GI50),[1]; RXF 393 (RE) cell line,-8.02
same,NCI-60 screening: Log(RedIndex),[1]; RXF 393 (RE) cell line,2.05
same,GI50,"[1]; RXF 393 (RE) cell line, read-out: NCI-60 screening: Raw GI50",9.5 nM
same,GI50,"[1]; RXF 393, read-out: GI50",9.5 nM
same,GI50,"[1]; SF-268, read-out: GI50",15 nM
same,GI50,"[1]; SF-295, read-out: GI50",9.7 nM
same,GI50,"[1]; SF-539, read-out: GI50",10 nM
same,GI50,"[1]; SK-MEL-5, read-out: GI50",13 nM
same,GI50,"[1]; SK-MEL-28, read-out: GI50",15 nM
same,NCI-60 screening: Log(GI50),[1]; SK-OV-3 (OV) cell line,-7.91
same,NCI-60 screening: Log(RedIndex),[1]; SK-OV-3 (OV) cell line,2.24
same,GI50,"[1]; SK-OV-3 (OV) cell line, read-out: NCI-60 screening: Raw GI50",12 nM
same,GI50,"[1]; SK-OV-3, read-out: GI50",12 nM
same,NCI-60 screening: Log(GI50),[1]; SN12C (RE) cell line,-7.77
same,NCI-60 screening: Log(RedIndex),[1]; SN12C (RE) cell line,1.85
same,GI50,"[1]; SN12C, read-out: GI50",17 nM
same,GI50,"[1]; SNB-19, read-out: GI50",16 nM
same,GI50,"[1]; SR, read-out: GI50",4 nM
same,GI50,"[1]; SW-620, read-out: GI50",58 nM
same,GI50,"[1]; T-47D, read-out: GI50",50 nM
same,NCI-60 screening: Log(GI50),[1]; TK-10 (RE) cell line,-6.9
same,NCI-60 screening: Log(RedIndex),[1]; TK-10 (RE) cell line,1.35
same,GI50,"[1]; TK-10 (RE) cell line, read-out: NCI-60 screening: Raw GI50",130 nM
